Experimental data taken from US20230255872A1, “ORAL CARE COMPOSITIONS AND METHODS” (DENTHERAPY LTD, priority 2020, published 2023).
Where two headings read alike, the source gives them in different places.

How the values were obtained:
[1] = Vickers microindentation erosive lesion rehardening model, MOK vs MOL (Example 3); settings: bovine enamel, treated twice a day for seven days, spray approx 0.1 ml, N=8
Protocol: Introduction. […] The objective of the study was to ascertain if formulation development for ToothBoost retained remineralizing efficacy. Four treatment groups were placed in the study: 1. MOK (legacy formulation), 2. Phosphate free ToothBoost MOL (development formulation), 3. 500 ppm fluoride solution made from MFP, 4. Deionised water. N=8 enamel specimens per treatment group.
Enamel blocks are prepared from sound disease free human molars or bovine incisors and mounted in 25 mm diameter resin discs. After curing the underside of the disc is flattened using p400 grit paper. […]
The discs are then rinsed under deionised water and sonicated for five minutes. Initial microhardness of the sound enamel is measured by microindentation to determine that the enamel is sufficiently mineralized for the purpose of the study and to record the microhardness of the sound enamel. […]
Method. […] The microhardness of the de-mineralized enamel is then measured and the enamel discs organised so that each group have a similar range of microhardness values.
The citric acid eroded bovine enamel specimens were then treated twice a day for seven days. […] At the end of day seven, the enamel specimens were rinsed in deionised water, dried and the micro hardness of the enamel was measured by Vickers microindentation to determine the extent of the re-mineralization of the enamel lesions. […]

[2] = Protocol: Introduction. The remineralisation potential of three formulations: deionised water, 500 ppm fluoride solution from MFP and fluoride free Toothboost MOL-15 formulation were tested in a standard microindentation erosive lesion rehardening model, as described above in example 3. The objective of this study was to ascertain if fluoride free Toothboost MOL-15 formulation has the potential to remineralise erosive lesions without the presence of fluoride.
(§1) Method. Five times a day for five days human enamel specimens with citric acid erosive lesions were sprayed with 0.15 g of the test formulations and incubated in artificial saliva (containing 1500 units/L of phosphatase) at 37° C. between treatments. The microhardness of the enamel specimens was remeasured after five days and the degree of re-mineralization calculated using the boundary conditions of 100% mineralized for the hardness of the initial enamel before the formation of the lesions and 0% mineralization for the hardness of the enamel after the formation of the lesion.

[3] = remark: listed apart in the source
Protocol: Introduction. The remineralisation potential of three formulations: deionised water, 1450 ppm fluoride solution from MFP and fluoride free BoostPaste MON-6 formulation were tested in a standard microindentation erosive lesion rehardening model as described above in example 3. The objective of this study was to ascertain if fluoride free Boostpaste MON-6 formulation has the potential to remineralise erosive lesions without the presence of fluoride.
as §1, with “Method. Twice” for “Method. Five times”, “were brushed” for “were sprayed”, “with” for “with 0.15 g of”, “remeasured each day for” for “remeasured after”

[4] = Further stain prevention cycling study (Example 8); set-up: species or system bovine
Protocol: Introduction. A cycling staining procedure as described in example 6 was again used to measure the staining prevention when bovine enamel was subjected to a cycling staining procedure after being treated with one of four formulations: ToothBoost MOL-6, a 3% solution of OPN pH adjusted to 7.0, a 1.25% solution of sodium bicarbonate pH adjusted to 7.0 and deionised water. The aim of the study was to rank the formulations in terms of their stain prevention capability when bovine enamel was treated with a combination of tea stain and chlorhexidine.
Method. The enamel cores were treated by spraying the assigned treatment onto the enamel face using a single actuation of the ToothBoost spray pack and incubating for two minutes.
The enamel specimens were then cycled between a 1% chlorhexidine solution, a solution of strong tea and artificial saliva for approximately ten cycles per day. At the end of the day of cycling the enamel was rinsed and allowed to dry before the enamel colour measured. The cycling continued for a total of three days of cycling. From the L*a*b* measurements the ΔE76 (change in perceivable colour) was calculated. ΔE76=1 is the smallest perceivable colour change that can be observed.
The cycling continued every day for three days.
After each set of cycling the enamel was rinsed with deionised water and allowed to dry before colour measurements were made. Fresh solutions were made at the start of each set of cycles.
Results. The change in colour of the enamel was calculated from the L*a*b* values where the ΔE76 (The difference between enamel colour before and after cycling) was determined from equation 1: […]

[5] = after the second round of treatments

Compound: F [500 ppm fluoride solution, monofluorophosphate]
- remineralisation of erosive lesions (Vickers microhardness), statistical comparison [1]: statistically (probability <0.05) better than deionised water
- remineralisation of erosive enamel lesions, statistical analysis ([2]; after 5 days of treatment): significant remineralisation
- calculated remineralisation ([2]; human enamel, sprayed 0.15 g five times a day for five days, 100% = initial enamel hardness, 0% = after lesion): over 25%

Compound: F [1450 ppm fluoride solution, monofluorophosphate]
- remineralisation of erosive lesions, statistical comparison ([3]; brushed twice a day for five days): statistically better than deionised water
- calculated remineralisation ([3]; human enamel, brushed twice a day, after five days of treatment, N=10): over 23%

Compound: O=C([O-])O.[Na+] [sodium bicarbonate]
- protection from staining (ΔE76), statistical comparison [4, 5]: statistically the same

Compound: OPN solution: 3% solution of OPN (osteopontin) pH adjusted to 7.0
- protection from staining (ΔE76), statistical comparison ([4]; after the first set of treatments): statistically more protection than sodium bicarbonate solution
- protection from staining (ΔE76), statistical comparison [4, 5]: statistically the same
- protection from staining (ΔE76), statistical comparison ([4]; after the third round of treatments): statistically the same
- protection from staining (ΔE76), statistical comparison ([4]; after the third round of treatments, listed as OPN): statistically better than sodium bicarbonate
